Laboratory results from patent publication US6310095A, “Inhibitors of protein isoprenyl transferases” (University of Pittsburgh, priority 1998, dated 2001).
Counter-ions that a name gives are not always drawn.

target: T1, protein farnesyltransferase (Rattus norvegicus, UniProt Q02293+Q04631); test: in vitro inhibition of protein farnesyltransferase (scintillation proximity assay, biotin-K Ras B fragment); type: biochemical; conditions: at 1 × 10^-6 M
T1 construct: Rat brain protein farnesyltransferase activity is measured; from tissue; host or cells: rat brain; purified according to Reiss et al., Cell 62:81-88 (1990), steps one through three
Description: The ability of the compounds of the invention to inhibit protein farnesyltransferase or protein geranylgeranyltransferase can be measured according to the method of Moores, et al., J. Biol. Chem. 266: 14603 (1991) or the method of Vogt, et al., J. Biol. Chem. 270:660-664 (1995). In addition, procedures for determination of the inhibition of farnesylation of the oncogene protein Ras are described by Goldstein, et al., J. Biol. Chem., 266:15575-15578 (1991) and by Singh in U.S. Pat. No. 5,245,061.
In addition, in vitro inhibition of protein farnesyltransferase may be measured by the following procedure. Rat brain protein farnesyltransferase activity is measured using an Amersham Life Science commercial scintillation proximity assay kit and substituting a biotin-K Ras B fragment (biotin-[…]CO2 H), 0.1 mM final concentration, for the biotin-lamin substrate provided by Amersham. The enzyme is purified according to Reiss, Y., et al., Cell, 62: 81-88 (1990), utilizing steps one through three.
The % inhibition of protein farnesyltransferase was determined for representative compounds of the invention.

SMILES | % inhibition of farnesyltransferase
CSCC[C@H](NC(=O)c1ccc(COCc2cccs2)cc1-c1ccccc1C)C(=O)[O-].[Li+] [Example 273] | 96%
CSCC[C@H](NC(=O)c1ccc(COCc2ccsc2)cc1-c1ccccc1C)C(=O)[O-].[Li+] [Example 274] | 94%
CCCCON(CCC1CCCCC1)Cc1ccc(C(=O)N[C@@H](CCS(C)(=O)=O)C(=O)O)c(-c2ccccc2C)c1 [Example 298] | 43%
CCCCN(C)N(CCC1CCCCC1)Cc1ccc(C(=O)N[C@@H](CCS(C)(=O)=O)C(=O)O)c(-c2ccccc2C)c1 [Example 300] | 22%
CSCC[C@H](NC(=O)c1ccc(CN(C)C(CC2CCCCC2)C(=O)N2CCCCC2)cc1-c1ccccc1C)C(=O)O (stereo partly shown) [Example 301] | 98%
Cc1ccccc1-c1cc(CNC(C)(C)Cc2ccccc2)ccc1C(=O)N[C@@H](CCS(C)(=O)=O)C(=O)O [Example 311] | 97%
Cc1ccccc1-c1cc(CN(C)C(C)(C)Cc2ccccc2)ccc1C(=O)N[C@@H](CCS(C)(=O)=O)C(=O)O [Example 313] | 94%
Cc1ccccc1-c1cc(CN(C)C(C)(C)CC2CCCCC2)ccc1C(=O)N[C@@H](CCS(C)(=O)=O)C(=O)O [Example 314] | 97%
CSCC[C@H](NC(=O)c1ccc(CN(C2CC2)C(C)(C)CC2CCCCC2)cc1-c1ccccc1C)C(=O)O [Example 316] | 63%
CSCC[C@H](NC(=O)c1ccc(CN(C(C)C)C(C)(C)Cc2ccccc2)cc1-c1ccccc1C)C(=O)O [Example 317] | 54%
Cc1ccccc1-c1cc(CN(C2CC2)C(C)(C)Cc2ccccc2)ccc1C(=O)N[C@@H](CCS(C)(=O)=O)C(=O)O [Example 319] | 98%
Cc1ccccc1-c1cc(CN(C2CC2)C(C)(C)CC2CCCCC2)ccc1C(=O)N[C@@H](CCS(C)(=O)=O)C(=O)O [Example 320] | 93%
CSCC[C@H](NC(=O)c1ccc(CN(C2CC2)C2(CC3CCCCC3)CC2)cc1-c1ccccc1C)C(=O)O [Example 324] | 98%
CSCC[C@H](NC(=O)c1ccc(CN(C(C)C)C2(CC3CCCCC3)CC2)cc1-c1ccccc1C)C(=O)O [Example 326] | 91%
CSCC[C@H](NC(=O)c1ccc(CN(C2CC2)C2(CC3CCCCC3)CCC2)cc1-c1ccccc1C)C(=O)O [Example 330] | 98%
CSCC[C@H](NC(=O)c1ccc(CN(C(C)C)C2(Cc3ccccc3)CCC2)cc1-c1ccccc1C)C(=O)O [Example 331] | 98%
CSCC[C@H](NC(=O)c1ccc(CN(C(C)C)C2(CC3CCCCC3)CCC2)cc1-c1ccccc1C)C(=O)O [Example 332] | 26%
Cc1ccccc1-c1cc(CN(C2CC2)C2(Cc3ccccc3)CCC2)ccc1C(=O)N[C@@H](CCS(C)(=O)=O)C(=O)O [Example 333] | 99%
Cc1ccccc1-c1cc(CN(C2CC2)C2(CC3CCCCC3)CCC2)ccc1C(=O)N[C@@H](CCS(C)(=O)=O)C(=O)O [Example 334] | 93%

Now from value to compound:

% inhibition of farnesyltransferase | SMILES
41% | CSCC[C@H](NC(=O)c1ccc(N2CC(=O)NNC2=O)cc1-c1ccccc1)C(=O)O [Example 224]
24% | CSCC[C@H](NC(=O)c1ccc(COCC2CCOC2)cc1-c1ccccc1)C(=O)O (stereo partly shown) [Example 287]
22% | CSCC[C@H](NC(=O)c1ccc(COCC2CCCO2)cc1-c1ccccc1)C(=O)O (stereo partly shown) [Example 288]
82% | CSCC[C@H](NC(=O)c1ccc(CNC(C)(C)Cc2ccccc2)cc1-c1ccccc1C)C(=O)O [Example 307]
62% | CSCC[C@H](NC(=O)c1ccc(CNC(C)(C)CC2CCCCC2)cc1-c1ccccc1C)C(=O)O [Example 308]
98% | CSCC[C@H](NC(=O)c1ccc(CN(C)C(C)(C)Cc2ccccc2)cc1-c1ccccc1C)C(=O)O [Example 309]
93% | CSCC[C@H](NC(=O)c1ccc(CN(C2CC2)C(C)(C)Cc2ccccc2)cc1-c1ccccc1C)C(=O)O [Example 315]
98% | CSCC[C@H](NC(=O)c1ccc(CN(C(C)C)C(C)(C)CC2CCCCC2)cc1-c1ccccc1C)C(=O)O [Example 318]
99% | CSCC[C@H](NC(=O)c1ccc(CN(C(C)C)C2(Cc3ccccc3)CC2)cc1-c1ccccc1C)C(=O)O [Example 325]
98% | CSCC[C@H](NC(=O)c1ccc(CN(C2CC2)C2(Cc3ccccc3)CCC2)cc1-c1ccccc1C)C(=O)O [Example 329]

same assay, conditions: at 1 × 10^-6 M; read-out: % inhibition of farnesyltransferase

SMILES | inhibition at 1 µM
CSCCC(NC(=O)c1ccc(NC(=O)Cc2cscn2)cc1-c1ccccc1)C(=O)O (stereo not shown) [Example 162, [4-(thiazo-4-ylmethylcarbonyl)amino-2-phenylbenzoyl]methionine] | 12%
CSCC[C@H](NC(=O)c1ccc(NC(=O)Cc2nccs2)cc1-c1ccccc1)C(=O)O [Example 163, [4-(thiazol-2-ylmethylcarbonyl)amino-2-phenylbenzoyl]methionine] | 18%
COC(=O)[C@H](CCSC)NC(=O)c1ccc(NC(=O)[C@@H]2CSCN2)cc1-c1ccccc1 [Example 164, [4-((R)-thiazolidin-4-ylcarbonyl)amino-2-phenylbenzoyl]methionine methyl ester hydrochloride] | 92%
CSCC[C@H](NC(=O)c1ccc(NC(=O)[C@@H]2CSCN2)cc1-c1ccccc1)C(=O)O [Example 165, [4-((R)-thiazolidin-4-ylcarbonyl)amino-2-phenylbenzoyl]methionine] | 74%
CSCC[C@H](NC(=O)c1ccc(NC[C@@H]2CSCN2)cc1-c1ccccc1)C(=O)O [Example 166, [4-((R)-thiazolidin-4-ylmethyl)amino-2-phenylbenzoyl]methionine hydrochloride] | 97%
CSCC[C@H](NC(=O)c1ccc(NC(=O)C2CCC(=O)N2)cc1-c1ccccc1)C(=O)O (stereo partly shown) [Example 202, [4-(2-pyrrolidinone-5-ylcarbonylamino)-2-phenylbenzoyl]methionine] | 31%
CSCCC(NC(=O)c1ccc(NC(=O)c2cncnc2)cc1-c1ccccc1)C(=O)O (stereo not shown) [Example 219, [4-(5-pyrimidylcarboxyamino)-2-phenylbenzoyl]methionine] | 56%
CSCCC(NC(=O)c1ccc(NC(=O)C2CCCNC2)cc1-c1ccccc1)C(=O)O (stereo not shown) [Example 231, [4-(3-piperidinecarboxyamino)-2-phenylbenzoyl]methionine hydrochloride] | 50%
CSCC[C@H](NC(=O)c1ccc(NCC2CNCCN2)cc1-c1ccccc1)C(=O)O (stereo partly shown) [Example 286, [4-(2-piperazinylmethylamino)-2-phenylbenzoyl]methionine] | 84%

same assay, conditions: read-out: % inhibition of farnesyltransferase

SMILES | inhibition at 1 µM
CSCC[C@H](NC(=O)c1ccc(NC(=O)C2=C(C(F)(F)F)C=CNC2)cc1-c1ccccc1)C(=O)O [Example 283, [4-(1H-4-trifluoromethyl-1,2-dihydropyrid-3-ylcarbonylamino)-2-phenylbenzoyl]methionine sodium salt] | 98%
CSCC[C@H](NC(=O)c1ccc(CNCc2ccco2)cc1-c1ccccc1)C(=O)O [Example 302, [4-(2-furylmethylaminomethyl)-2-phenylbenzoyl]methionine lithium salt] | 31%
